The values that follow come from patent US9707253B2, “High-loading, controlled-release magnesium oral dosage forms and methods for making and using same” (Pharmalyte Solutions, LLC, priority 2008, dated 2017).

“And” between values parts separate entries of the source, which are not always exact repeats. Equal values may be shown once.

The conditions of data set [1]: oral magnesium salts, background statement; cited from earlier work.
For data set [2] the following is noted: normal: minimum 33.9 mEq/IU; cited from earlier work.
The conditions of data set [3]: healthy subjects, approximately 21 mEq, urinary excretion; cited from earlier work.
Data set [4] is described as follows: Absolute bioavailability study: urinary magnesium pharmacokinetics. To be noted: baseline-adjusted, Treatment B: IV infusion 20 mEq over 4 hours, fasted. An excerpt: (§1) A study has been conducted to investigate magnesium L-lactate dihydrate extended release caplets for management of magnesium-deficient patients who have experienced electrolyte imbalance due to iatrogenic or disease cause such as episodic migraine headaches. […] A study to compare the absolute bioavailability of an oral magnesium formulation compared to an IV administered magnesium sulfate including both serum and urine pharmacokinetic parameters has never been reported in the scientific literature.
(§2) Three treatment regimens (Treatments A, B, and C) were employed in the study.
(§3) Urine and blood samples were collected for pharmacokinetic (PK) analysis of urinary and serum magnesium concentrations. A total of 29 urine samples for each subject were collected continuously throughout the study for determination of fractional and daily urine magnesium concentrations, and 33 blood samples were collected from each subject for determination of serum magnesium concentrations at each time point during the study.
(§4) The PK analysis population included 29 subjects for Treatment A, 29 subjects for Treatment B, and 31 subjects for Treatment C.
(§5) The absolute bioavailability of magnesium was evaluated by comparing serum magnesium exposure (AUC0-72) or urinary magnesium excretion (Ae0-72) after oral versus IV administration.

Data set [5] can be described thus: Absolute bioavailability study: serum magnesium pharmacokinetics. The following applies: fasted; for AUC0-72 / AUC0-t / Cmax: mean (SD); for Tmax: median (range).
From the text: as §1, §2, §3, §4, §5

[6] abbreviates: baseline-adjusted, Treatment B: IV infusion 20 mEq over 4 hours.
The mark [7] stands for this setting: observed, Treatment B: IV infusion 20 mEq over 4 hours.

In the case of `[Cl-].[Cl-].[Mg+2]` [magnesium chloride], in data set [1], the bioavailability entry was “about 20%”.
In the case of `CC(O)C(=O)[O-].CC(O)C(=O)[O-].[Mg+2]` (stereo not drawn) [magnesium lactate, 2-hydroxypropanoic acid magnesium salt], in data set [2], the “effective in repleting intracellular magnesium levels to normal ranges” value is reported as 100%.
Take `[O]=[Mg]` [magnesium oxide]: the bioavailability result in data set [1] is on record as “about 2%”. The fractional absorption average in data set [3] was 4%.
Turning to `O=S(=O)([O-])[O-].[Mg+2]` [magnesium sulfate], in data set [4] (median (range)), the CLR0-72 is recorded as 3.57 (1.44-35.6) L/h. In data set [4] (urine, mean (SD)), the Ae0-72 is listed as 225 (49.5) mg; the Rmax was 20.5 (4.29) mg/h; the fe0-72 is 92.7% and 92.7 (20.4) %. Also, in data set [4] (urine, median (range)), the “Tmax,rate” value was 5.00 (3.00-9.00) h. Besides, in data set [5] (setting [6]), the AUC0-72 is 76.2 (37.9) h · μg/mL, the AUC0-t is recorded as 72.8 (35.4) h · μg/mL, the Cmax is given as 6.79 (1.46) μg/mL and the Tmax is recorded as 4.00 (2.00-6.00) h. For the same compound, in data set [5] (setting [7]), the AUC0-72 is 1390 (121) h · μg/mL, the AUC0-t was 1390 (121) h · μg/mL and the Cmax is 25.7 (1.62) μg/mL. The Tmax in data set [5] (observed, Treatment B: single IV infusion 20 mEq over 4 hours) was 4.00 (2.00-6.00) h.
Take magnesium gluconate: in data set [1], the bioavailability result is “about 20%”.
